Source: PMC12801355, “Peptide Amphiphiles Hitchhike on Endogenous Biomolecules for Enhanced Cancer Imaging and Therapy” (Advanced Materials (Deerfield Beach, Fla.), 2025)
Where a SMILES comes first, the peptide text is derived from it. The star is where a group is joined. Palmitoyl = CCCCCCCCCCCCCCCC(=O)*

Key:
Assay in all cases: Mass spectrometry of proteins pulled down with biotinylated SA‐E (SA‐Eb) from human plasma
Type in all cases: binding
[1] = biological target: T1, human plasma proteins (Homo sapiens, UniProt P02652)
T1 construct: incubated with 50% pooled human plasma at 37 °C for 2 h; from tissue; host or cells: pooled human plasma (50%)
T1 sequence (P02652 19-100): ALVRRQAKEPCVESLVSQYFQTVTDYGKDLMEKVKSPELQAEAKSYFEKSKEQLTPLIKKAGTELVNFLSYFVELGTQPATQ
Description: (§1) Samples were prepared for mass spectrometry analysis via a pull‐down of a biotinylated version of the SA‐E probe (SA‐Eb, 100 µM) incubated with 50% pooled human plasma at 37 °C for 2 h. Before incubation with the SA‐Eb‐plasma mixture, magnetic streptavidin‐coated beads (Dynabeads MyOne Streptavidin T1, Invitrogen, 65601) were washed with PBS (10 mM, pH 7.4) then blocked with 1% casein equal to the total initial volume of beads for 15 min at room temperature. After blocking, beads were washed again with PBS. Beads were then combined with SA‐Eb‐plasma solution, 25 µL beads to 200 µL mixture. This mixture was then incubated at room temperature for 30 min. After incubation, the remaining solution was removed, and the beads were washed five times with PBS. Bound SA‐Eb was eluted from beads in 30 µL 0.5% Triton X‐100 solution. Magnetic beads were then removed, and the elution was collected for analysis. For plasma control, the incubation with SA‐Eb step was skipped, and 50% plasma in PBS was incubated with beads and washed and eluted using the same method as the SA‐Eb‐plasma solution. The elution solutions were then analyzed by the Proteomics Shared Resource facility at Oregon Health & Science University (See Supporting Information for details).
(§2) Sample Preparation. Eluted plasma samples were dried down and stored at -80°C. Samples were thawed at room temperature for 10 min, and 75 µL of SDS protein extraction buffer (5% SDS, 50 mM […]; TEAB) was added to each sample. Samples were shaken in a Thermo mixer for 10 minutes at room temperature and centrifuged at 10,000 g for 5 min. Each sample was transferred from a 0.5 mL tube to a 1.5 mL LoBind centrifuge tube. Samples were reduced by adding 3.4 µL of 0.5 M dithiothreitol and incubated at 95 °C for 10 min. Samples were alkylated by the addition of 6.8 µL of 0.5 M iodoacetamide and were incubated at room temperature for 30 min in the dark. Samples were then acidified by the addition of 8.52 µL of 12% phosphoric acid, and 562 µL of SDS protein binding buffer (90% methanol, 100 mM TEAB, pH 7.51). Samples were transferred 165 µL at a time to S-trap micro columns (Protifi, Farmingdale, NY) and inserted into 1.5 mL of polypropylene tubes. Samples were centrifuged at 4,000 g for 3 min between each addition of the sample. S-trap columns were washed 6 times using 150 µL of 90% methanol containing 100 mM of TEAB followed by centrifugation at 4,000g for 3 min between each wash step. S-trap columns containing the bound sample proteins were transferred to 1.5 mL LoBind centrifuge tubes and 40 µL of 80 ng/µL sequencing grade modified trypsin (Pierce TM Trypsin Protease MS-Grade, XG348166) in 50 mM TEAB was added. S-trap columns were loosely capped, and digestion was performed at 37°C overnight in a humidified chamber.
(§3) After completion of digestion, peptides were eluted by sequential addition of 40 µL of TEAB, 40 µL of 0.2% aqueous formic acid, and 40 µl of 50% acetonitrile, 0.2% formic acid, with centrifugation at 4,000 g for 4 min between each addition of elution buffer. The elution fractions were combined and then dried by vacuum centrifugation. Samples were reconstituted by adding 20 µL of 5% formic acid, shaking at 37 °C, and spinning at 15,000 g for 5 min. The supernatant of each sample was transferred to an auto-sample vial.
(§4) Data analysis. Mass spectrometry data from all samples were processed using COMET/PAWS against Uniprot_Human_database. Comet (v. 2016.01, rev. 3)^8 was used to search MS2 Spectra against a January 2023 version of canonical FASTA protein database containing human uniprot sequences, and concatenated sequence-reversed entries to estimate error thresholds and 179 common contaminant sequences and their reversed forms. The database processing was performed using python scripts available at https://github.com/pwilmart/fasta_utilities.git and Comet results were processed using the PAW pipeline2 from https://github.com/pwilmart/PAW_pipeline.git.

[2] = biological target: T2, human plasma proteins (Homo sapiens, UniProt P02656)
T2 construct: incubated with 50% pooled human plasma at 37 °C for 2 h; from tissue; host or cells: pooled human plasma (50%)
T2 sequence (P02656 21-99): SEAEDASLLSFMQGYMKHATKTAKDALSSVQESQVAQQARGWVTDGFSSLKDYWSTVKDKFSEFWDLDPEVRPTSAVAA
Description: as §1, §2, §3, §4

[3] = biological target: T3, human plasma proteins (Homo sapiens, UniProt P05090)
T3 construct: incubated with 50% pooled human plasma at 37 °C for 2 h; from tissue; host or cells: pooled human plasma (50%)
T3 sequence (P05090 21-189): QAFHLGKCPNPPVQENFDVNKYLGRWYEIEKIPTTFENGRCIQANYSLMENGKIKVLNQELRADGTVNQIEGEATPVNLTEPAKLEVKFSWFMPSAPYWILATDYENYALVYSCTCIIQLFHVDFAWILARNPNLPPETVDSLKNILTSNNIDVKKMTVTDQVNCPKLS
Description: as §1, §2, §3, §4

[4] = biological target: T4, human plasma proteins (Homo sapiens, UniProt O14791)
T4 construct: incubated with 50% pooled human plasma at 37 °C for 2 h; from tissue; host or cells: pooled human plasma (50%)
T4 sequence (O14791 28-398): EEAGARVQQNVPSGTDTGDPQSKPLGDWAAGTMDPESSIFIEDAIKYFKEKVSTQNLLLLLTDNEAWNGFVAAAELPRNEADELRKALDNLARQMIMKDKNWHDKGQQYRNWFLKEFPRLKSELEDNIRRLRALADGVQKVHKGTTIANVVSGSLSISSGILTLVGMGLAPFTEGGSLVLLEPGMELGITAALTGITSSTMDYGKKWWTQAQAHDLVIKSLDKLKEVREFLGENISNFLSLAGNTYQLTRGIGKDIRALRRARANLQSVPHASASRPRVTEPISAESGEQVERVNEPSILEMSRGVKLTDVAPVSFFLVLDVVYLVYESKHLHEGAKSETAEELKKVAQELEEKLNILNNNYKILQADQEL
Description: as §1, §2, §3, §4

[5] = biological target: T5, human plasma proteins (Homo sapiens, UniProt P02649)
T5 construct: incubated with 50% pooled human plasma at 37 °C for 2 h; from tissue; host or cells: pooled human plasma (50%)
T5 sequence (P02649 19-317): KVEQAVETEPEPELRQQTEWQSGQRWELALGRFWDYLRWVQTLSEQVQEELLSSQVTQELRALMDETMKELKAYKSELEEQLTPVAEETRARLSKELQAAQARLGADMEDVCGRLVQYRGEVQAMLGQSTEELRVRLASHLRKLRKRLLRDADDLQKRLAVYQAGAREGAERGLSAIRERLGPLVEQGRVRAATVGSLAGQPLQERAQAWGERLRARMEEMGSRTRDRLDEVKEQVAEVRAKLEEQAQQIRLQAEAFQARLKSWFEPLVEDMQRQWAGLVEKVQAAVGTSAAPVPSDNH
Description: as §1, §2, §3, §4

[6] = biological target: T6, human plasma proteins (Homo sapiens, UniProt P02768); conditions: for Total Counts, Albumin: pull‐down with biotinylated SA-E
T6 construct: incubated with 50% pooled human plasma at 37 °C for 2 h; from tissue; host or cells: pooled human plasma (50%)
T6 sequence (P02768 25-609): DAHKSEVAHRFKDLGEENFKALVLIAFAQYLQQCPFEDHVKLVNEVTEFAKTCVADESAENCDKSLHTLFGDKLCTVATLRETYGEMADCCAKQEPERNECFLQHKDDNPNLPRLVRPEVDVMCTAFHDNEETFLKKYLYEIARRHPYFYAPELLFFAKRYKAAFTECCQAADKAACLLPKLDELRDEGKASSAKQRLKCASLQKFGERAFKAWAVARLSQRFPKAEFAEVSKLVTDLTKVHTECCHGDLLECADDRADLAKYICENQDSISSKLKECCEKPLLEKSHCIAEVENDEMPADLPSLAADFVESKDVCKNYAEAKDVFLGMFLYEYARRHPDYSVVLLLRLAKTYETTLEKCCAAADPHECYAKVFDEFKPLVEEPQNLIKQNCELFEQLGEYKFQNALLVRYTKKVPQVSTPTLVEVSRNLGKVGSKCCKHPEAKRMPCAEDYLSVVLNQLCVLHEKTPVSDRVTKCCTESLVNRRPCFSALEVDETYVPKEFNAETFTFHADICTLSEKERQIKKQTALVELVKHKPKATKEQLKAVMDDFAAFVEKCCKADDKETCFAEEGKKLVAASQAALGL
Description: as §1, §2, §3, §4

[7] = biological target: T7, human plasma proteins (Homo sapiens, UniProt P02647)
T7 construct: incubated with 50% pooled human plasma at 37 °C for 2 h; from tissue; host or cells: pooled human plasma (50%)
T7 sequence (P02647 19-267): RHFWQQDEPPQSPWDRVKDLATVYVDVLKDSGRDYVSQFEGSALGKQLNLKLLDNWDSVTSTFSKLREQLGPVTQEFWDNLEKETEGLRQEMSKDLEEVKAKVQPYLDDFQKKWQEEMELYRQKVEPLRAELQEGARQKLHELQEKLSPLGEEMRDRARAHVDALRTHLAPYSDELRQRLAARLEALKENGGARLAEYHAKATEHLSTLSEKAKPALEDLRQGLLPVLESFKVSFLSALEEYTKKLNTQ
Description: as §1, §2, §3, §4

[8] = biological target: T8, human plasma proteins (Homo sapiens, UniProt P02654)
T8 construct: incubated with 50% pooled human plasma at 37 °C for 2 h; from tissue; host or cells: pooled human plasma (50%)
T8 sequence (P02654 27-83): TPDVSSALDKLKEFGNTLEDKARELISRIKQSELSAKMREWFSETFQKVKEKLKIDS
Description: as §1, §2, §3, §4

[9] = biological target: T9, human plasma proteins (Homo sapiens, UniProt O95445)
T9 construct: incubated with 50% pooled human plasma at 37 °C for 2 h; from tissue; host or cells: pooled human plasma (50%)
T9 sequence (O95445 whole entry): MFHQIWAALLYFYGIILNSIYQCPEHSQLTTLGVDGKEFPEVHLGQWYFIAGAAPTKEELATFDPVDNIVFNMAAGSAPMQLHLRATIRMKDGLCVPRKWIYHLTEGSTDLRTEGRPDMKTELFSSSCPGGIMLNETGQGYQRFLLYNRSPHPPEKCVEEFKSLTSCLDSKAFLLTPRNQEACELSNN
Description: as §1, §2, §3, §4

## CCCCCCCCCCCCCCCC(=O)NCC(=O)NCC(=O)NCC(=O)N[C@@H](Cc1c[nH]cn1)C(=O)N[C@@H](C)C(=O)N[C@@H](C)C(=O)N[C@@H](CC(N)=O)C(=O)NCC(=O)N[C@@H](CCC(=O)O)C(=O)N[C@@H](CCC(=O)O)C(=O)N[C@@H](CS)C(=O)N[C@@H](CCC(=O)O)C(=O)O [SA‐E] (Palmitoyl-GGGHAANGEECE-OH)
[1]; replicate 1
  Percentage, Apolipoprotein A-II: 0.2%
  Total Counts, Apolipoprotein A-II: 6
[1]; replicate 2
  Percentage, Apolipoprotein A-II: 0.2%
  Total Counts, Apolipoprotein A-II: 6
[2]; replicate 1
  Percentage, Apolipoprotein C-III: 0.1%
  Total Counts, Apolipoprotein C-III: 4
[2]; replicate 2
  Percentage, Apolipoprotein C-III: 0.2%
  Total Counts, Apolipoprotein C-III: 5
[3]; replicate 1
  Percentage, Apolipoprotein D: 0.6%
  Total Counts, Apolipoprotein D: 22
[3]; replicate 2
  Percentage, Apolipoprotein D: 0.8%
  Total Counts, Apolipoprotein D: 22
[4]; replicate 1
  Percentage, Apolipoprotein L1: 0.2%
  Total Counts, Apolipoprotein L1: 7
[4]; replicate 2
  Percentage, Apolipoprotein L1: 0.2%
  Total Counts, Apolipoprotein L1: 7
[5]; replicate 1
  Percentage, Apolipoprotein E: 1.8%
  Total Counts, Apolipoprotein E: 66
[5]; replicate 2
  Percentage, Apolipoprotein E: 2.1%
  Total Counts, Apolipoprotein E: 59
[6]; replicate 1
  Total Counts, Albumin: 1215
  Percentage, Albumin: 34.0%
[6]; replicate 2
  Total Counts, Albumin: 923
  Percentage, Albumin: 32.5%
[7]; replicate 1
  Percentage, Apolipoprotein A-I: 15.7%
  Total Counts, Apolipoprotein A-I: 560
[7]; replicate 2
  Percentage, Apolipoprotein A-I: 21.1%
  Total Counts, Apolipoprotein A-I: 600
[8]; replicate 1
  Percentage, Apolipoprotein C-I: 0.2%
  Total Counts, Apolipoprotein C-I: 6
[8]; replicate 2
  Percentage, Apolipoprotein C-I: 0.3%
  Total Counts, Apolipoprotein C-I: 9
[9]; replicate 1
  Percentage, Apolipoprotein M: 0.3%
  Total Counts, Apolipoprotein M: 11
[9]; replicate 2
  Percentage, Apolipoprotein M: 0.4%
  Total Counts, Apolipoprotein M: 12
